Results as given in patent publication US8586588B2, “Aryl pyridazinone derivatives and their use as H3 receptor ligands” (Cephalon, Inc., priority 2006, dated 2013).
Like-named read-outs stand apart in the source and are kept apart here.

Legend:
human H3 receptor = target: T1, human H3 receptor (Homo sapiens, UniProt Q9Y5N1); experiment: Human H3 radioligand binding ([3H]-N-alpha-methylhistamine, CHO cell membranes, SPA); conditions: binding constant as letter class
T1 construct: expressed in transfected cells
Summary of the method: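 Scintillation proximity format: bead-proximal [3H]-N-alpha-methylhistamine (approximately 1 nM final) bound to human H3 receptor in CHO membranes was counted after 4 h at room temperature, light-protected. Buffer was pH 7.4 Tris/MgCl2/BSA; test compounds spanned 0.01 nM-30 μM; 10 μM clobenpropit set non-specific binding.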

[1] = target: T2, rat histamine H3 receptor (Rattus norvegicus, UniProt Q9QYN8); experiment: Rat H3 radioligand binding ([3H]-N-alpha-methylhistamine, CHO-A3 cell membranes, SPA); conditions: binding constant as letter class
T2 construct: encoding the entire 445-amino-acid rat histamine H3 receptor; expressed in transfected cells
Summary of the method: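 Scintillation proximity displacement of about 1 nM [3H]-N-alpha-methylhistamine, test compound 0.01 nM-30 μM, 4 h, room temperature, in the dark. Receptor source: rat H3 stably transfected into CHO-A3 cells, 10 μg membrane protein, Tris-HCl pH 7.4/MgCl2/BSA buffer. Nonspecific binding defined by 10 μM clobenpropit.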

T1 sequence (Q9Y5N1 whole entry): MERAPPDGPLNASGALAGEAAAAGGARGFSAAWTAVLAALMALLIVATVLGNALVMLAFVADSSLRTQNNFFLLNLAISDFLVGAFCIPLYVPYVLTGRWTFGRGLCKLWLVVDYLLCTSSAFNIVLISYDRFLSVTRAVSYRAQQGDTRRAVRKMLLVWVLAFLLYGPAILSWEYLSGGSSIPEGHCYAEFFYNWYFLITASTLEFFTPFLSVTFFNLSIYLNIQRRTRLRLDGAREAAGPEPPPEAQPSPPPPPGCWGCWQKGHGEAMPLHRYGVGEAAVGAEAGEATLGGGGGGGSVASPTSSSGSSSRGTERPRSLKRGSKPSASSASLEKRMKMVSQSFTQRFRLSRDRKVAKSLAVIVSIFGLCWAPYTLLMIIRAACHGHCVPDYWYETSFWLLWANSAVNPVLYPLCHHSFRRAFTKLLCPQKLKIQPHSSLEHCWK
T2 sequence (Q9QYN8 whole entry): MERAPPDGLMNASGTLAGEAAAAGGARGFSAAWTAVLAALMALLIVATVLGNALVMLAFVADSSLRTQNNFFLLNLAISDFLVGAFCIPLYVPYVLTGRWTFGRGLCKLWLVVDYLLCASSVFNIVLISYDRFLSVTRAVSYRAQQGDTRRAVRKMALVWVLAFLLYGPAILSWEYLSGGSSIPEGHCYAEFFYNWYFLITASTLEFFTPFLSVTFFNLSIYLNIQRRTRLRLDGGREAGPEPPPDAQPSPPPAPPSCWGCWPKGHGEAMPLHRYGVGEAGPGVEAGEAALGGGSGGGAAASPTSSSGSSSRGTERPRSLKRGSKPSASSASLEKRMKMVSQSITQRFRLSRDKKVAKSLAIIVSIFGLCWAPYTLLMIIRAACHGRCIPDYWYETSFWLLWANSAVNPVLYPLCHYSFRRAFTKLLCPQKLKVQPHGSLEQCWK

Row | SMILES | Ki (human H3 receptor; Table B) [nM] | Ki ([1]; Table B, read-out: rat H3 Ki) [nM] | Ki (human H3 receptor; Table A) [nM] | Ki ([1]; Table A, read-out: Rat H3 Ki) [nM]
1 | Cc1cccnc1-n1nc(C)c(-c2ccc(OCCCN3CCC[C@H]3C)cc2)cc1=O [Example 101, 6-Methyl-2-(3-methyl-pyridin-2-yl)-5-{4-[3-((R)-2-methyl-pyrrolidin-1-yl)-propoxy]-phenyl}-2H-pyridazin-3-one] | 0.1 to 100 | 0.1 to 100 |  | 
2 | Cn1nc(-c2ccc(OC3CCN(C4CCC4)CC3)nc2)ccc1=O [Example 144, 6-[6-(1-Cyclobutyl-piperidin-4-yloxy)-pyridin-3-yl]-2-methyl-2H-pyridazin-3-one] | 0.1 to 100 | 0.1 to 100 |  | 
3 | C[C@@H](COc1ccc(-c2ccc(=O)n(C)n2)cc1)CN1CCC[C@H]1C [Example 82, 2-Methyl-6-{4-[(R)-2-methyl-3-((R)-2-methyl-pyrrolidin-1-yl)-propoxy]-phenyl}-2H-pyridazin-3-one] | 0.1 to 100 | 0.1 to 100 |  | 
4 | O=c1cc(-c2ccc(OC3CCN(C4CCC4)CC3)nc2)cn[nH]1 [Example 117, 5-[6-(1-Cyclobutyl-piperidin-4-yloxy)-pyridin-3-yl]-2H-pyridazin-3-one] | 0.1 to 100 | 0.1 to 100 |  | 
5 | O=c1ccc(-c2ccc(OC3CCN(C4CCC4)CC3)cc2)nn1-c1ccccn1 [Example 157] | 0.1 to 100 | 0.1 to 100 |  | 
6 | C[C@@H]1CCCN1CCCOc1ccc(C2=NNC(=O)C3CC23)cc1 (mixture of isomers) [Example 243, 5-{4-[3-((R)-2-Methyl-pyrrolidin-1-yl)-propoxy]-phenyl}-3,4-diaza-bicyclo[4.1.0]hept-4-en-2-one] | 0.1 to 100 | 0.1 to 100 |  | 
7 | CC1CC(=O)NN=C1c1ccc(OCCCN2CCC[C@H]2C)cc1 (single isomer, unassigned) [Example 195] | 0.1 to 100 | 0.1 to 100 |  | 
8 | C[C@@H]1CCCN1CCCOc1ccc(-c2ccc(=O)n(-c3ncccn3)n2)cc1 [Example 138, 6-{4-[3-((R)-2-Methyl-pyrrolidin-1-yl)-propoxy]-phenyl}-2-pyrimidin-2-yl-2H-pyridazin-3-one] | 0.1 to 100 | 0.1 to 100 |  | 
9 | O=c1ccc(-c2ccc(O[C@@H]3CCN(C4CCC4)C3)cc2)n[nH]1 [Example 161, 6-[4-((R)-1-Cyclobutyl-pyrrolidin-3-yloxy)-phenyl]-2H-pyridazin-3-one] | > 1000 | > 1000 |  | 
10 | C[C@@H]1CCCN1CCCOc1ccc(C2=NNC(=O)C3CC23)cc1 (single isomer, unassigned) [Example 246] | 0.1 to 100 | 0.1 to 100 |  | 

More lines, now with the values ahead:

Row | Ki (human H3 receptor; Table B) [nM] | Ki ([1]; Table B, read-out: rat H3 Ki) [nM] | Ki (human H3 receptor; Table A) [nM] | Ki ([1]; Table A, read-out: Rat H3 Ki) [nM] | SMILES
11 |  |  | 0.1 to 100 | 101 to 500 | O=c1cc2c(nn1Cc1ccccc1)-c1ccc(OCCCN3CCCCC3)cc1CC2 [Example 77, 2-Benzyl-8-(3-piperidin-1-yl-propoxy)-5,6-dihydro-2H-benzo[h]cinnolin-3-one]
12 | 0.1 to 100 | 0.1 to 100 |  |  | COCn1ncc(-c2ccc(OCCCN3CCCCC3)cc2C)cc1=O [Example 232, 2-Methoxymethyl-5-[2-methyl-4-(3-piperidin-1-yl-propoxy)-phenyl]-2H-pyridazin-3-one]
13 |  |  | 0.1 to 100 | 0.1 to 100 | Cc1cc(-c2ccc(OCCCN3CCC[C@H]3C)cc2)nn(Cc2ccccc2)c1=O [Example 43, 2-Benzyl-4-methyl-6-{4-[3-((R)-2-methyl-pyrrolidin-1-yl)-propoxy]-phenyl}-2H-pyridazin-3-one]
14 | 0.1 to 100 | 0.1 to 100 |  |  | Cc1cccnc1-n1ncc(-c2ccc(OCCCN3CCC[C@H]3C)cc2)cc1=O [Example 99, 2-(3-Methyl-pyridin-2-yl)-5-{4-[3-((R)-2-methylpyrrolidin-1-yl)-propoxy]-phenyl}-2H-pyridazin-3-one]
15 |  |  | 0.1 to 100 | 0.1 to 100 | C[C@@H]1CCCN1CCCOc1ccc(C2=NN(C)C(=O)CC2)cc1 [Example 16, 2-Methyl-6-{4-[3-((R)-2-methyl-pyrrolidin-1-yl)-propoxy]-phenyl}-4,5-dihydro-2H-pyridazin-3-one]
16 | 0.1 to 100 | 101 to 500 |  |  | O=c1ccc(-c2ccc(OCCCN3CCCCC3)c(F)c2)n[nH]1 [Example 120, 6-[3-Fluoro-4-(3-piperidin-1-yl-propoxy)-phenyl]-2H-pyridazin-3-one]
17 | 0.1 to 100 | 0.1 to 100 |  |  | C[C@@H]1CCCN1CCCOc1ccc2c(c1)CCC1CC(=O)NN=C21 (stereo partly drawn) [Example 212, 8-[3-(2-Methyl-pyrrolidin-1-yl)-propoxy]-4,4a,5,6-tetrahydro-2H-benzo[h]cinnolin-3-one]
18 |  |  | 0.1 to 100 | 0.1 to 100 | Cn1nc(-c2ccc(OCCCN3CCCCC3)cc2)c2c(c1=O)CCCC2 [Example 61]
